The results in this text go back to US20170280720A1, “ARGININE […] INHIBITORS AND USES THEREOF” (EPIZYME, INC., priority 2014, published 2017).

The test deals with T1, human PRMT1 (Homo sapiens, UniProt Q99873).
T1 construct: GST-tagged PRMT1; made in house; host or cells: High Five insect cells (baculovirus, pFastBacI)
The test can be described thus: PRMT1 biochemical assay (3H-SAM Flashplate, peptide substrate). As to conditions: read-out: PRMT1_ IC50. In outline:
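FLAG-tagged full-length human PRMT1 (0.5 nM, GST-tagged, insect-cell expressed) preincubated 30 min at RT with compound, then biotinylated histone H4 36-50 peptide (20 nM) plus 200 nM 3H-SAM and 1.5 uM SAM in Bicine pH 7.6, 2% DMSO. 3H-methylated peptide captured on streptavidin Flashplate; IC50 from 3/4-parameter fit.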

T1 sequence (Q99873 with tags, fused parts or gaps): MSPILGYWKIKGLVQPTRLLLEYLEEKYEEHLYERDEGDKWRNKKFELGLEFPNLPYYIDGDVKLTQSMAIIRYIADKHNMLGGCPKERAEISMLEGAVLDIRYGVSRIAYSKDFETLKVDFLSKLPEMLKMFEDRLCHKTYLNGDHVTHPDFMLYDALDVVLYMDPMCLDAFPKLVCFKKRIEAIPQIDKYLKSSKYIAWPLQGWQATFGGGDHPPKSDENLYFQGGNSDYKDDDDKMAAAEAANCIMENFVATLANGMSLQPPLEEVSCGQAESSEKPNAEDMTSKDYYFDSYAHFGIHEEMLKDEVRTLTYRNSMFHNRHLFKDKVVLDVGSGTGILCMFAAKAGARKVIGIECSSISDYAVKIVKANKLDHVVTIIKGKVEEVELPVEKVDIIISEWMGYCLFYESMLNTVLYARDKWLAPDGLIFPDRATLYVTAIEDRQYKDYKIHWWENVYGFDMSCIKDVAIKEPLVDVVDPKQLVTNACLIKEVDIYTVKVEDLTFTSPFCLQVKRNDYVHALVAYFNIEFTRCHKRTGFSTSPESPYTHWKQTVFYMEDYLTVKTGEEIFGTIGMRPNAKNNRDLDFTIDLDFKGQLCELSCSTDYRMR

One may read the IC50 as the point on the concentration scale where inhibition reaches its midpoint. Consider `CN(CCN)Cc1cccc(-c2nc(NCc3nccs3)c3cnn(C4CC4)c3n2)c1` [Compound 1], for which the IC50 is 19.3 nM.

As to `CNCCN(C)Cc1cccc(-c2cc(C(=O)N[C@@H](C)c3ccccc3)c3cn[nH]c3n2)c1` [Compound 12], the IC50 was found to be 59.4 nM. The value for `CN(CCN)Cc1ccc(-c2ccc3ncn(-c4ccccc4)c3c2)cc1` [Compound 19] was 82.3 nM; that for `CN(CCN)Cc1cccc(-c2cc(C(=O)NC3CCOCC3)c3cnn(C)c3n2)c1` [Compound 158] was 3020 nM; that for `CNCCN(C)Cc1cccc(-c2cc(C(=O)NCC3CCOCC3)c3cnn(C4CCC4)c3n2)c1` [Compound 21] was 89 nM.

Turning to `CC(C)n1ncc2c(N3CCOCC3)cc(-c3cccc(CN(C)CCNC4CC4)c3)nc21` [Compound 163], the IC50 turned out to be 4410 nM. With `CC(C)n1cnc2cc(-c3ccc(CN(C)CCN)cc3)ccc21` [Compound 46], the IC50 was determined as 196 nM. As for `CNCCN(C)Cc1cccc(-c2cc(C(=O)N(C)Cc3ccccc3)c3cnn(C(C)C)c3n2)c1` [Compound 24], the figure is 97.4 nM; as for `CC(C)n1ncc2c(C(=O)NC3CCOCC3)cc(-c3cccc(CN(C)CCN)c3)nc21` [Compound 148], 1480 nM; as for `CNCCN(C)Cc1cccc(-c2cc(NS(=O)(=O)N(C)C)c3cnn(C(C)C)c3n2)c1` [Compound 139], 1050 nM.

Take `CC(C)n1ncc2c(C(=O)N3CCCCC3)cc(-c3cccc(CN(C)CCN)c3)nc21` [Compound 43]: the IC50 came out at 188 nM. Consider `CNCCN(C)Cc1cccc(-c2cc(Oc3ccccc3)c3cnn(C(C)C)c3n2)c1` [Compound 45], for which the IC50 was found to be 194 nM. Take `CNCCN(C)Cc1cccc(-c2cnc3c(c2)c(Br)nn3CC2CCOCC2)c1` [Compound 39]: the IC50 came out at 164 nM. With `CNCCN(C)Cc1cccc(-c2nc(NC3CCOCC3)c3cnn(C(C)(C)C)c3n2)c1` [Compound 27, N1-(3-(1-tert-butyl-4-(tetrahydro-2H-pyran-4-ylamino)-1H-pyrazolo[3,4-d]pyrimidin-6-yl)benzyl)-N1,N2-dimethylethane-1,2-diamine], the IC50 was determined as 106 nM. For `CNCCN(C)Cc1cccc(-c2cc(Nc3ncc(C)s3)c3cnn(C(C)C)c3n2)c1` [Compound 20], the IC50 was determined as 85 nM. As for `CCC(=O)c1cc(-c2cccc(CN(C)CCNC)c2)nc2c1cnn2C(C)C` [Compound 128], the IC50 is 808 nM. With `CNCCN(C)Cc1cccc(-c2ccc3ncn(C4CCOCC4)c3c2)c1` [Compound 30], the IC50 is 118 nM.

As to `COc1cccc(CNC(=O)c2cncc(-c3ccc(CNCCN)cc3)c2)c1` [Compound 356], the IC50 came out at 755 nM.

`Cc1cc2cc(-c3ccc(CNCCN)cc3)ccc2[nH]1` [Compound 141]: the IC50 worked out at 1110 nM. Take `COc1ccc(Cn2cnc3ccc(-c4ccc(CN(C)CCN)cc4)cc32)cc1` [Compound 16]: the IC50 was found to be 69.6 nM.

Regarding `CNCCN(C)Cc1cccc(-c2cc(C(=O)N3CCc4ccccc4C3)c3cnn(C(C)C)c3n2)c1` [Compound 42], the IC50 turned out to be 185 nM. For `CNCCN(C)Cc1cccc(-c2cc(C(=O)NCC3CCOCC3)c3cnn(C4CC4)c3n2)c1` [Compound 26], the IC50 was determined as 106 nM. The value for `CNCCN(C)Cc1cccc(-c2cc(NS(C)(=O)=O)c3cnn(C(C)C)c3n2)c1` [Compound 169] was 10000 nM; that for `CNCCN(C)Cc1cccc(-c2cc(N)c3cnn(C(C)C)c3n2)c1` [Compound 151] was 1660 nM. As to `CNCCN(C)Cc1cccc(-c2ccc3c(c2)ncn3C(C)C)c1` [Compound 36], the IC50 is 153 nM.

`CNCCN(C)Cc1cccc(-c2cc(C(=O)NC3CCOCC3)c3cnn(C4CCC4)c3n2)c1` [Compound 29]: the half-maximal inhibitory concentration (IC50) amounted to 114 nM.

In the case of `CNCCN(C)Cc1cccc(-c2cc(C(=O)NCc3c(F)cccc3F)c3cnn(C(C)C)c3n2)c1` [Compound 47], the IC50 stood at 209 nM. In the case of `CS(=O)(=O)N1CCC(Cn2cnc3ccc(-c4ccc(CNCCN)cc4)cc32)CC1` [Compound 129], the IC50 was determined as 821 nM.

`CC(C)n1ncc2c(C(=O)N[C@@H](C)c3ccccc3)cc(-c3cccc(CNCCN)c3)nc21` [Compound 160]: the IC50 is 4100 nM. As for `CNCCN(C)Cc1cccc(-c2cc(NC3CC3)c3cnn(C(C)C)c3n2)c1` [Compound 11], the IC50 turned out to be 51.6 nM. For `CNCCN(C)Cc1cccc(-c2cc(NC(=O)NC3CCOCC3)c3cnn(C(C)C)c3n2)c1` [Compound 133], the IC50 was 866 nM. As to `CCS(=O)(=O)Nc1cc(-c2cccc(CN(C)CCNC)c2)nc2c1cnn2C(C)C` [Compound 161], the IC50 stood at 4170 nM. On to `Cc1c(C(=O)NCc2ccccc2)cc(-c2cccc(CN(C)CCN)c2)c2cn[nH]c12` [Compound 15], for which the IC50 turned out to be 69.6 nM. Take `NCCNCc1ccc(-c2ccc3ncn(C4CCNCC4)c3c2)cc1` [Compound 157]: the IC50 is 2430 nM. For `CNC(=O)Nc1cc(-c2cccc(CN(C)CCN)c2)nc2c1cnn2C(C)C` [Compound 126], the 50% inhibitory concentration (IC50) was 783 nM. In the case of `CN(CCN)Cc1cccc(-c2nc(NC3CCOCC3)c3cnn(C(C)(C)C)c3n2)c1` [Compound 18], the half-maximal inhibitory concentration (IC50) is 72.8 nM.

For the compound `CC(C)n1ncc2c(C(=O)NCC3CCOCC3)cc(-c3cccc(CN(C)CCNC4CC4)c3)nc21` [Compound 167], the IC50 came to 5890 nM.

As to `CNCCN(C)Cc1cccc(-c2cnc3c(c2)OCC(=O)N3)c1` [Compound 355], the IC50 was 512 nM. Turning to `CNCCN(C)Cc1cccc(-c2nc(NCc3cc(C)nn3C)c3cnn(C4CC4)c3n2)c1` [Compound 17], the IC50 stood at 69.7 nM. The value for `CN(CCN)Cc1cccc(-c2cc(C(=O)NC3CCOCC3)c3cnn(CC(F)(F)F)c3n2)c1` [Compound 144] was 1200 nM.

For the compound `N#Cc1cccc(Cn2cnc3ccc(-c4ccc(CNCCN)cc4)cc32)c1` [Compound 145], the IC50 was 1270 nM. As for `CN(CCN)Cc1cccc(-c2cc(C(=O)NC3CCOCC3)c3cnn(C4CC4)c3n2)c1` [Compound 142], the IC50 was found to be 1110 nM. With `CC(C)n1ncc2c(C(=O)N[C@@H](C)c3ccccc3)cc(-c3cccc(CN(C)CCN)c3)nc21` [Compound 136], the IC50 came to 934 nM. As for `CNCCN(C)Cc1cccc(-c2ccc3ncn(C(C)C)c3c2)c1` [Compound 28], the figure is 114 nM; as for `CNCCN(C)Cc1cc(-c2cc(C(=O)NC3CCOCC3)c3cnn(C(C)C)c3n2)ccc1F` [Compound 130], 833 nM; as for `CNCCN(C)Cc1cccc(-c2cc(OCC(F)(F)F)c3cnn(C(C)C)c3n2)c1` [Compound 154], 2290 nM. As for `CNCCN(C)Cc1cccc(-c2cc(C(=O)NCc3cnn(C)c3C)c3cnn(C(C)C)c3n2)c1` [Compound 137], the figure is 985 nM.

Consider `CNCCN(C)Cc1cccc(-c2cc(NC(=O)NC)c3cnn(C(C)C)c3n2)c1` [Compound 138], for which the IC50 amounted to 1040 nM.

Consider `CC(C)n1ncc2c(C(=O)N[C@@H](C)c3ccccc3)cc(-c3cccc(CN(C)CCN)c3)cc21` [Compound 10], for which the IC50 was found to be 48.5 nM. The value for `CNCCN(C)Cc1cccc(-c2ccc3cn(Cc4ccccc4)nc3n2)c1` [Compound 35] was 152 nM; that for `CC(C)n1ncc2c(C(=O)N3CCCCC3)cc(-c3cccc(CNCCN)c3)nc21` [Compound 153] was 1710 nM; that for `CC(C)n1ncc2c(C(=O)NCc3c(F)cccc3F)cc(-c3cccc(CNCCN)c3)nc21` [Compound 168] was 7810 nM. As for `NCCNCc1ccc(-c2cnc3c(c2)CCC(=O)N3)cc1` [Compound 156], the figure is 2410 nM. On to `CC(C)n1ncc2c(C(=O)NCc3ccccc3F)cc(-c3cccc(CNCCN)c3)nc21` [Compound 159], for which the IC50 was 3140 nM. The value for `CC(C)n1ncc2c(C(=O)NCC3CCN(C)CC3)cc(-c3cccc(CN(C)CCN(C)C)c3)nc21` [Compound 162] was 4320 nM; that for `CC(C)n1ncc2c(C(=O)NCc3ccc(F)cc3)cc(-c3cccc(CN(C)CCN)c3)nc21` [Compound 25] was 105 nM; that for `CC(C)n1cc2c(N)cc(-c3cccc(CN(C)CCN)c3)nc2n1` [Compound 13] was 66.2 nM. For `CCn1ncc2c(C(=O)N[C@@H](C)c3ccccc3)cc(-c3cccc(CN(C)CCNC)c3)nc21` [Compound 33], the 50% inhibitory concentration (IC50) is 140 nM. As for `CN(CCN)Cc1cccc(-c2nc(NCc3cccnc3)c3cnn(C4CC4)c3n2)c1` [Compound 40], the figure is 168 nM. For `CC(C)n1ncc2c(C(=O)NCc3ccccc3)cc(-c3cccc(CN(C)CCN)c3)cc21` [Compound 14], the IC50 came out at 69.2 nM.

Turning to `CC(C)n1cnc2cc(-c3cccc(CN(C)CCN)c3)ccc21` [Compound 32], the half-inhibitory concentration (IC50) turned out to be 128 nM. Consider `CNCCN(C)Cc1cccc(-c2ccc3c(c2)ncn3CCOC)c1` [Compound 34], for which the IC50 amounted to 145 nM. For the compound `CC(C)n1ncc2c(C(=O)N(C)Cc3ccccc3)cc(-c3cccc(CN(C)CCN)c3)nc21` [Compound 31], the IC50 turned out to be 128 nM. As to `CNCCN(C)Cc1cccc(-c2cc(C(=O)NCc3ccccc3F)c3cnn(C(C)C)c3n2)c1` [Compound 38], the IC50 is 159 nM. `CC(C)n1ncc2c(C(=O)NCc3ccncc3)cc(-c3cccc(CNCCN)c3)nc21` [Compound 150]: the half-maximal inhibitory concentration (IC50) was found to be 1600 nM. As for `NCCNCc1ccc(-c2cnc3c(c2)OCC(=O)N3)cc1` [Compound 358], the figure is 78.5 nM.

For the compound `CC(C)n1ncc2c(C(=O)NCc3ccccc3)cc(-c3cccc(CNCCN)c3)cc21` [Compound 134], the IC50 came to 925 nM. Regarding `CNCCN(C)Cc1cccc(-c2cc(C(=O)N[C@@H](C)c3ccccc3)c3cnn(C(C)C)c3n2)c1` [Compound 44], the IC50 turned out to be 189 nM. In the case of `Cc1cccc(CCn2cnc3ccc(-c4ccc(CNCCN)cc4)cc32)c1` [Compound 143], the IC50 was 1110 nM. In the case of `COc1cccc(Cc2nc3ccc(-c4ccc(CNCCN)cc4)cc3n2C(C)C)c1` [Compound 135], the IC50 is 932 nM. As for `CC(C)n1ncc2c(C(=O)NCc3ccccc3)cc(-c3cccc(CNCCN)c3)nc21` [Compound 155], the figure is 2300 nM.
